These results are taken from ChEMBL document CHEMBL3860068, “Class II Phosphoinositide 3-Kinases as Novel Drug Targets” (J Med Chem, 2017).

For experiment [1], the target named is T1, DNA-dependent protein kinase catalytic subunit (Homo sapiens, UniProt P78527). The experiment is described as follows: Inhibition of human DNA-PK by luciferase-luciferin-coupled chemiluminescence assay.
The target of experiment [2] is T2, Phosphatidylinositol 3-kinase catalytic subunit type 3 (Homo sapiens, UniProt Q8NEB9). Briefly: Inhibition of N-terminal tagged full-length human VPS34 by luciferase-luciferin-coupled chemiluminescence assay.
Experiment [3] is described as follows: Inhibition of class 4 PI3K (unknown origin). On the set-up: species or system Homo sapiens.
A short description of experiment [4]: Inhibition of class 1 PI3K (unknown origin). On the set-up: species or system Homo sapiens.
The target of experiment [5] is T2, Phosphatidylinositol 3-kinase catalytic subunit type 3. Briefly: Inhibition of human recombinant Vps34 using substrate PI incubated for 1 hr by Adapta kinase assay.
Experiment [6] addresses T1, DNA-dependent protein kinase catalytic subunit. Briefly: Inhibition of DNA-PK (unknown origin).
Experiment [7] has as its target T3, Phosphatidylinositol 4-phosphate 3-kinase C2 domain-containing subunit alpha (Homo sapiens, UniProt O00443). The experiment is described as follows: Inhibition of PI3KC2alpha (unknown origin) expressed in HEK293 cells using phosphatidylinositol and gamma-32P-ATP incubated for 20 mins by TLC assay or high-throughput membrane capture assay. Format: cell-based.
In experiment [8] the target is T2, Phosphatidylinositol 3-kinase catalytic subunit type 3. The experiment is described as follows: Inhibition of full length human recombinant VPS34 (unknown origin) using phosphatidylinositol and gamma-32P-ATP incubated for 20 mins by TLC assay or high-throughput membrane capture assay.
The target of experiment [9] is T4, Phosphatidylinositol 4-phosphate 3-kinase C2 domain-containing subunit beta (Homo sapiens, UniProt O00750). The experiment is described as follows: Inhibition of PI3KC2beta (unknown origin) expressed in HEK293 cells using phosphatidylinositol and gamma-32P-ATP incubated for 20 mins by TLC assay or high-throughput membrane capture assay. In kind it is cell-based.

For experiment [10], the target named is T3, Phosphatidylinositol 4-phosphate 3-kinase C2 domain-containing subunit alpha. The experiment is described as follows: Inhibition of PI3KC2alpha (unknown origin).
Experiment [11] concerns the target T5, Phosphatidylinositol 3-kinase C2 domain-containing subunit gamma (Homo sapiens, UniProt O75747).
T5 sequence (O75747 whole entry): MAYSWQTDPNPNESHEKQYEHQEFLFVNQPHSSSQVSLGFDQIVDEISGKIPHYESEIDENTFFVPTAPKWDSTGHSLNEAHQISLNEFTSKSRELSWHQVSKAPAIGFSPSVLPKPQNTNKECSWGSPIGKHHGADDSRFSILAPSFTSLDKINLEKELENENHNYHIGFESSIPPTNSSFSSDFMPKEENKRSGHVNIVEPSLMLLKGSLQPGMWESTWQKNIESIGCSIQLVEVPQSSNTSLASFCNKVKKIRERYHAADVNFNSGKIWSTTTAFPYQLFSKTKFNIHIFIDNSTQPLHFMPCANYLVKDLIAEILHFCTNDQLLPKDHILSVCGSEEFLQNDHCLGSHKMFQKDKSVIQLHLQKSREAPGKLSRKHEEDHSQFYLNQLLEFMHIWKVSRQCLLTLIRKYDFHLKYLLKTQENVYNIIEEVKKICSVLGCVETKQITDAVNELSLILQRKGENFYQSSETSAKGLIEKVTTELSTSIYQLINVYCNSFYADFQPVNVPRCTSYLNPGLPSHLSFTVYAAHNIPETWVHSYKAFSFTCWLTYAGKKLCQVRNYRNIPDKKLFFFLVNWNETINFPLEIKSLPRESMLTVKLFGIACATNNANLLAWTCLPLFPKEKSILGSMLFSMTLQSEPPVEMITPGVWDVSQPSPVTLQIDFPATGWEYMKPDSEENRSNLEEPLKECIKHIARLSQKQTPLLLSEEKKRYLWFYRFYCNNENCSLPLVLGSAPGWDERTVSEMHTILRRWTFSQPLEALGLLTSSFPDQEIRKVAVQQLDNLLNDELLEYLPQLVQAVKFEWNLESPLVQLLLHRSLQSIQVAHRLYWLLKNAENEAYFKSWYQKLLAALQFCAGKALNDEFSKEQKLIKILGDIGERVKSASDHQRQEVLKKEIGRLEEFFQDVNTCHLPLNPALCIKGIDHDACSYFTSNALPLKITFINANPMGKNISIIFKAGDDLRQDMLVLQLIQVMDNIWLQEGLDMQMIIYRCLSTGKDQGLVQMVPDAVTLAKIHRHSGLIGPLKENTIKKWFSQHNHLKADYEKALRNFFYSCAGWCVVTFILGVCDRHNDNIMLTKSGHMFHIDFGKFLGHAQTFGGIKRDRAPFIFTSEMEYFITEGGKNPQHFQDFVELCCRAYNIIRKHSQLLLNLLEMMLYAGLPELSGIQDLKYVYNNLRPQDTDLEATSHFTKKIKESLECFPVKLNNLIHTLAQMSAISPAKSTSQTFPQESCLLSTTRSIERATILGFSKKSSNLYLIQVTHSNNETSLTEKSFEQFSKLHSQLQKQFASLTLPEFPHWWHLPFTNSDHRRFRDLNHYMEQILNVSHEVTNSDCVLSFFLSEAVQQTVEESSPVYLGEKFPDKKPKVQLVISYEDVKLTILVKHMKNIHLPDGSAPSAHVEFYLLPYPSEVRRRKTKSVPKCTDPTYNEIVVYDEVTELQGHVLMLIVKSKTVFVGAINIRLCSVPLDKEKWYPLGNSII
The experiment is described as follows: Inhibition of PI3KC2gamma (unknown origin).

Experiment [12] has as its target T4, Phosphatidylinositol 4-phosphate 3-kinase C2 domain-containing subunit beta. The experiment is described as follows: Inhibition of PI3KC2beta (unknown origin).
Experiment [13] concerns the target Phosphatidylinositol 4,5-bisphosphate 3-kinase catalytic subunit gamma isoform (Homo sapiens, UniProt P48736). Briefly: Inhibition of PI3Kgamma (unknown origin).
Experiment [14] deals with T4, Phosphatidylinositol 4-phosphate 3-kinase C2 domain-containing subunit beta. Briefly: Inhibition of human recombinant PI3KC2beta using substrate PI incubated for 1 hr by Adapta kinase assay.
Experiment [15] has as its target T3, Phosphatidylinositol 4-phosphate 3-kinase C2 domain-containing subunit alpha. Briefly: Inhibition of human recombinant PI3KC2alpha using substrate PI incubated for 1 hr by Adapta kinase assay.

T2 sequence (Q8NEB9 whole entry): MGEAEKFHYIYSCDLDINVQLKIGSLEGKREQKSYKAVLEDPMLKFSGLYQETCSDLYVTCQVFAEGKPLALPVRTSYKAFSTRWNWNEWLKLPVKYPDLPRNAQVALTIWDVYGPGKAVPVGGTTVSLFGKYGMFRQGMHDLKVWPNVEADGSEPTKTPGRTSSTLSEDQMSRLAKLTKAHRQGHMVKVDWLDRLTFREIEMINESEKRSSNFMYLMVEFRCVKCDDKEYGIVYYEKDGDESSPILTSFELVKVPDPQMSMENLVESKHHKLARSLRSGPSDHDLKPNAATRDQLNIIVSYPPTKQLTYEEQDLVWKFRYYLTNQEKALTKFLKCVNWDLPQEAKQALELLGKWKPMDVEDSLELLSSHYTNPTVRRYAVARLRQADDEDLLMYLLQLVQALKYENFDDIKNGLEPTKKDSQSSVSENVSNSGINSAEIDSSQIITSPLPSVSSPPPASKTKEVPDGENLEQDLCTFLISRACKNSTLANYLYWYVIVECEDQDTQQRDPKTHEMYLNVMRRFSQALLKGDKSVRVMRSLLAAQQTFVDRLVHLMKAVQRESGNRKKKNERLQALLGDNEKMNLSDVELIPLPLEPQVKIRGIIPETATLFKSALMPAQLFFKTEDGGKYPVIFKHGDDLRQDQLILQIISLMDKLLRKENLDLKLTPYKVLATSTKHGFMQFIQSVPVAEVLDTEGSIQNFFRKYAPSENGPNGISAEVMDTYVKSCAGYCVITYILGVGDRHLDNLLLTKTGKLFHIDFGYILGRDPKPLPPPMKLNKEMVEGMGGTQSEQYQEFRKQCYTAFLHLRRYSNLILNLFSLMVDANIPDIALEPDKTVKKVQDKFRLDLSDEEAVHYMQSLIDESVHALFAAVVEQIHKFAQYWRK
T3 sequence (O00443 whole entry, the tested form may be a part): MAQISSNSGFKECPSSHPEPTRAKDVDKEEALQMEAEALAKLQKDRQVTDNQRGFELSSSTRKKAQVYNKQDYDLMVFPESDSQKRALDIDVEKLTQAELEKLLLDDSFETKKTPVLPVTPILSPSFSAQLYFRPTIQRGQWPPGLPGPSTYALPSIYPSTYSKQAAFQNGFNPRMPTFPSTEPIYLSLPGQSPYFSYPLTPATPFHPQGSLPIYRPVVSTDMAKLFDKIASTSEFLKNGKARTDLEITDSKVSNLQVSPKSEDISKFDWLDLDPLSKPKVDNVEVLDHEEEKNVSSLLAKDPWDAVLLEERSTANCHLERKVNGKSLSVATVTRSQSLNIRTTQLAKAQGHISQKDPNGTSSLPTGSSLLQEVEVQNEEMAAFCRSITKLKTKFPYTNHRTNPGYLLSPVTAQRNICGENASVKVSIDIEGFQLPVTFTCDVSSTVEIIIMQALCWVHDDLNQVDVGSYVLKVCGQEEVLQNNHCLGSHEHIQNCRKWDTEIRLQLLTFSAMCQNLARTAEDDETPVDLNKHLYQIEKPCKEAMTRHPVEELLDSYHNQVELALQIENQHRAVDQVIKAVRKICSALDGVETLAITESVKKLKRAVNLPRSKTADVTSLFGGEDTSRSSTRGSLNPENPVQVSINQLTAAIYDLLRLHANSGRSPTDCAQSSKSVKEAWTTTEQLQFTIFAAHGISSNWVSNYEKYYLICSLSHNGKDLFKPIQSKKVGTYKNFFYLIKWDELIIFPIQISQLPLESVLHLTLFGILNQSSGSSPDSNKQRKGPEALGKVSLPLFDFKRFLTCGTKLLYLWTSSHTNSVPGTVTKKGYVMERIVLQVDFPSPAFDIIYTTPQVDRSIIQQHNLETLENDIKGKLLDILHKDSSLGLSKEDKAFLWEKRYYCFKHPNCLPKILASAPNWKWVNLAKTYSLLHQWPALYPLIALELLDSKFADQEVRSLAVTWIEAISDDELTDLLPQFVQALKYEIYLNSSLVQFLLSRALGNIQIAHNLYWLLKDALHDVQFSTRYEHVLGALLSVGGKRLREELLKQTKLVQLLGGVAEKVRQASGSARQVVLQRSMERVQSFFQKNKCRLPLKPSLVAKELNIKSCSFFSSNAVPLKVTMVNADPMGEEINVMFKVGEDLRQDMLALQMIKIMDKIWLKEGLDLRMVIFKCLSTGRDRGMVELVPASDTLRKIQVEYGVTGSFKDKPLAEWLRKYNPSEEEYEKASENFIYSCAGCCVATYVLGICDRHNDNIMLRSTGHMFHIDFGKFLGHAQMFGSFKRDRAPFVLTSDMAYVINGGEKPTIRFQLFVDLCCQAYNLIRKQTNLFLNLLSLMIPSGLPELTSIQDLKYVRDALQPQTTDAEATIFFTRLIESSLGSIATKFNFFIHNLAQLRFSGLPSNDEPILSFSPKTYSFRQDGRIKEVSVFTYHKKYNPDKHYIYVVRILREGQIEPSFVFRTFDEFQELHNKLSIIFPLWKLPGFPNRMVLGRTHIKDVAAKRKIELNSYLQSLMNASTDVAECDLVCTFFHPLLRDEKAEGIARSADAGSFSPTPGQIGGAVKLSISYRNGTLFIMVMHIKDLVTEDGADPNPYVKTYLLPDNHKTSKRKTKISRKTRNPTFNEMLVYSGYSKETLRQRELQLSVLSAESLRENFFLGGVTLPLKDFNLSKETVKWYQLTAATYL
T4 sequence (O00750 whole entry, the tested form may be a part): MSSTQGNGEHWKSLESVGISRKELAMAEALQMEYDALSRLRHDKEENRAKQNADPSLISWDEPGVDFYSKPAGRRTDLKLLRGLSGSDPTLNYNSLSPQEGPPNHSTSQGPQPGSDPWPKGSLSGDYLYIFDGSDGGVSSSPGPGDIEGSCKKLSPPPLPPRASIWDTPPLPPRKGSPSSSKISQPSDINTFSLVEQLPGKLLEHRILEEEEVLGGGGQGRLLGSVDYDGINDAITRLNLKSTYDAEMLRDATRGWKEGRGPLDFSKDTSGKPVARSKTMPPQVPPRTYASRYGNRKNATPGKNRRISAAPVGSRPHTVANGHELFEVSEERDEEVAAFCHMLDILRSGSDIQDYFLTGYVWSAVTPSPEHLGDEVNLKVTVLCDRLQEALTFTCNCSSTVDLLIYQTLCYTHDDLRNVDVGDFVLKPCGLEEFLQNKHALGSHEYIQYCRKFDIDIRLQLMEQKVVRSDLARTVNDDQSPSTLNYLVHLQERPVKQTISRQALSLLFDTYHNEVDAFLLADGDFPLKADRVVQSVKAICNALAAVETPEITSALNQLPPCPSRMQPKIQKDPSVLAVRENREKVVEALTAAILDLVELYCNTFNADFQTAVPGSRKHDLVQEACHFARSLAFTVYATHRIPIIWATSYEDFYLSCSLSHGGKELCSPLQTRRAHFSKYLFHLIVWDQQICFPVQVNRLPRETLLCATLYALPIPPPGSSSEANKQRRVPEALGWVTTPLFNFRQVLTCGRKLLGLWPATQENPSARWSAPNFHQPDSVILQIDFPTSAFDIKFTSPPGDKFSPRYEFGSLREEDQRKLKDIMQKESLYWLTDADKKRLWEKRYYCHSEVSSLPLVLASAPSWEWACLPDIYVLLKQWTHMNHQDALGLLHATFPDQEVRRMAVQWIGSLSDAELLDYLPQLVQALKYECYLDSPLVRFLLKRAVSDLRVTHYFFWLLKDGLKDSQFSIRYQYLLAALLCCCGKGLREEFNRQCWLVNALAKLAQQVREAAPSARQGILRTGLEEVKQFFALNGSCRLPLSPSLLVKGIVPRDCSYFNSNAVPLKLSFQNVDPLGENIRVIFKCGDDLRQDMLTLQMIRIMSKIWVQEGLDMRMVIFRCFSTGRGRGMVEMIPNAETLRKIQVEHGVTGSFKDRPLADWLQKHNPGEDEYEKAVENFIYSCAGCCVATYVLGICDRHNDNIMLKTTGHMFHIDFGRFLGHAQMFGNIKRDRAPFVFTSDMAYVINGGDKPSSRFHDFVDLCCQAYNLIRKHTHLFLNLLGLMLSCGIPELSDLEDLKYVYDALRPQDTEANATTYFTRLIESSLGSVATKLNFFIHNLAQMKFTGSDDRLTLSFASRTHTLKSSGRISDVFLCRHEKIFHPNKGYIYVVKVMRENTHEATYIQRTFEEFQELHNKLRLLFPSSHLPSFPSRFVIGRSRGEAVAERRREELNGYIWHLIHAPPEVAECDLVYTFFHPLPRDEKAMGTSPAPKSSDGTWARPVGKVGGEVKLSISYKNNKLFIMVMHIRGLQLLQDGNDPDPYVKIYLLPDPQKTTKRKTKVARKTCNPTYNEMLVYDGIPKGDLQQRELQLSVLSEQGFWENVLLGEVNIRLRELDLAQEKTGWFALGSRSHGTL

In the case of `COc1ccc(Cl)c(Nc2nc3ccccc3nc2NS(=O)(=O)c2cccc(NC(=O)C(C)(C)N)c2)c1` [PILARALISIB], the half-inhibitory concentration (IC50) in experiment [1] came to 4.8 µM; in [2], 7 µM.

In the case of `CC(=O)Nc1ccc2nc(-c3cccc(NS(=O)(=O)c4ccccc4)c3)nc(N3CCOCC3)c2c1`, the IC50 in [3] is greater than 100 µM; in experiment [4], greater than 10 µM.

As to `FC(F)c1nc2ccccc2n1-c1nc(N2CCOCC2)nc(N2CCOCC2)n1` [ZSTK-474], in experiment [5], the IC50 is greater than 100 µM.

Consider `O=C1NC(=S)S/C1=C\c1ccc2c(c1)N(Cc1ccc(F)c(Cl)c1)C(=O)CO2`, for which the IC50 is 1.5 µM in experiment [6], 0.14 µM in experiment [7], 10 µM in [8] and 0.37 µM in [9].

As for `CC(C)(O)CNc1ncc(-c2ccnc(Nc3ccnc(Cl)c3)n2)c(CC2CC2)n1`, the IC50 in experiment [10] was greater than 10 µM; in experiment [11], greater than 10 µM; in [3], greater than 1 µM; in experiment [4] it was greater than 10 µM; in [12], greater than 10 µM.

In [10], `CS(=O)(=O)N1CCN(Cc2cc3nc(-c4cccc5[nH]ncc45)nc(N4CCOCC4)c3s2)CC1` [PICTILISIB] came in with an IC50 greater than 10 µM.

Take `Nc1ncc(-c2ccnc(Nc3ccncc3)n2)c(CC2CC2)n1`: the IC50 was 3 µM in [13] and greater than 9.1 µM in experiment [3].

Turning to `C[C@@H]1COCCN1c1cc(=O)n2c(n1)N(Cc1cncc(Cl)c1)[C@H](C(F)(F)F)CC2`, the IC50 in experiment [10], in experiment [11], in [3], in [4] and in experiment [12] was greater than 10 µM in each case.

Turning to `COc1ccc2c(c1OC)N=C(NC(=O)c1cccnc1)N1CCN=C21`, the IC50 in experiment [8] stood at 0.83 µM.

As to `CC(=O)Nc1nc(C)c(-c2ccc(Cl)c(S(=O)(=O)NCCO)c2)s1`, the values for the IC50 in [8] and in experiment [9] were 0.32 µM and 14 µM, respectively.

Turning to `Cn1c(=O)n(-c2ccc(C(C)(C)C#N)cc2)c2c3cc(-c4cnc5ccccc5c4)ccc3ncc21` [DACTOLISIB], the results for the IC50 in experiment [5], in [14] and in [15] were 0.45 µM, 0.044 µM and 0.034 µM, respectively.

For the compound `CC(=O)Nc1ccc2nc(-c3cccc(NS(=O)(=O)c4ccc5ccccc5c4)c3)nc(N3CCOCC3)c2c1`, the half-inhibitory concentration (IC50) is greater than 100 µM in experiment [3] and greater than 10 µM in [4].
